Test results: patent US8440827B2, “Photolabile caged transition metal complexes and methods of using the same” (Duke University, priority 2008, dated 2013)
Read-outs that look alike come from different tables or passages of the source. Values belong to the compound of their own block, whether it stands above or below them.

Tests used:
[1] = Deoxyribose assay for hydroxyl radical production; details: for effect on OH• production by copper: relative to Cu2+ alone
Source text: Hydroxyl radicals, which are generated in this assay by Fenton-like conditions of copper, ascorbic acid, and H2O2, degrade deoxyribose to give thiobarbituric acid (TBA)-reactive products with absorbance at 532 nm. Ligands added to the reaction mixture attenuate the amount of TBA-reactive species by altering the coordination environment around copper. […] The 2-deoxyribose assay was used to measure hydroxyl radical formation (Halliwell, B.; Gutteridge, […]. Anal. Biochem. 1987, 165, 215-219). A mixture of copper, ascorbic acid, and hydrogen peroxide generates hydroxyl radicals by Fenton-like chemistry. Hydroxyl radicals attack 2-deoxyribose to form malondialdehyde (MDA), which upon heating with TBA under acidic conditions produces a pink chromophore (λmax=532 nm). Chelators that prevent copper from reacting with ascorbic acid and hydrogen peroxide result in less chromophore formation. All assays were performed using 20 mM NaH2PO4 buffered to pH 7.4. The following reagents were added sequentially to obtain a 1 mL buffered solution with these final concentrations: chelator (10-20 μM), CuSO4 (10 μM), 2-deoxyribose (15 mM), H2O2 (100 μM), and ascorbic acid (2 mM). For photolyzed samples, 500 μM solutions of [Cu(OH2)(cage)] in 20 mM pH 7.4 NaH2PO4 buffer were photolyzed in screwtop quartz cuvettes for 4 min in the photoreactor, then immediately diluted into the deoxyribose reaction mixtures to obtain final concentrations of 10 μM in Cu. Stock solutions of CuSO4, ascorbic acid, and H2O2 were prepared fresh daily, other solutions were prepared weekly. […] The temperature was increased to 100° C. for 20 min, then cooled to room temperature and the absorbance at 532 nm was recorded. Values are reported as A/A0 where A0 is the absorbance without chelator present and A is the absorbance with chelator added. The value for CuSO4 alone is A/A0=1. Error bars represent standard deviations from measurements done in at least triplicate.

[2] = cited from earlier work
[3] = Potentiometric and pH-dependent spectrophotometric titrations of CuL; assay type: physicochemical; details: for Log β (overall stability constant): pH-dependent spectrophotometric titration, 25° C., 0.1 M NaClO4, Specfit, refined
Description: Cu(II) perchlorate solutions (0.1 M) were prepared from solid Cu(ClO4)2.6H2O and standardized with 0.05 M EDTA to a murexide endpoint in ammonia buffer. NaOH, HClO4, and NaClO4 solutions (0.1 M) were prepared with boiled nanopure deionized water and were degassed upon cooling to remove dissolved carbonate. NaOH solutions were standardized by titration with both 0.2 M HCl and potassium hydrogen phthalate to a phenolphthalein end point and were stored under Ar; HClO4 stock solutions were prepared from concentrated perchloric acid and standardized by titration with standard NaOH to a phenolphthalein end point. All solutions were degassed with Ar for 45 minutes prior to each experimental run.
Titrations were carried out at 25° C. with 0.1 M NaClO4 supporting electrolyte in a 3-mL cuvette equipped with a pH probe, titrator tip, and stir bar, and blanketed in Ar to preserve an inert environment. The glass-bulb probe (Orion combination pH electrode model 8103BN filled with 3 M NaCl) was calibrated with pH 4 and 7 standard reference buffers (RICCA Chemical Company). CuL solutions were prepared by dissolving [Cu(OH2)(cage)] recrystallized from methanol in 0.1 M NaClO4 to obtain CuL concentrations in the range of 0.5 mM. Initial volumes were between 2 and 2.2 mL. A Schott TITRONIC® 110 plus autotitrator kept under constant Ar sparge was used to deliver 2 to 4 μL aliquots of acid or base through the titrator tip into the reaction cuvette. The solutions were stirred constantly and allowed to equilibrate at least 30 s after each addition before data were collected. All titrations were carried out from low to high and from high to low pH with similar results.
Titration data for the CuL complex show two ionizable protons below pH 5.

[4] = Competition study of nitrilotriacetic acid (NTA) vs. cage for Cu2+; assay type: binding; details: competition with NTA, 50 mM HEPES pH 7.4, 25° C., refined
Description: Solutions of CuL (where L=cage^2−) were prepared by dissolving [Cu(OH2)cage] that was recrystallized from methanol into 50 mM HEPES (N-(2-hydroxyethyl)-piperazine-N′-2-ethanesulfonic acid) buffer, pH 7.4, with initial concentrations ranging from 03-1.5 mM. The reaction vessel was a 3-mL cuvette and initial solution volumes were 1 mL. All titrations were carried out at 25° C. Aliquots (1-2 μL) of the competitive chelator NTA (100 mM) were pipetted into CuL solutions and monitored spectrophotometrically. After each addition, solutions were manually mixed and equilibrated for 5 min before data were collected. Reported errors in log β were calculated from the standard deviation of three runs.

[5] = Photolysis with 350 nm UV light, followed by UV-vis and LC-MS; assay type: physicochemical; details: pH 7.4 phosphate buffer
Source text: The shift in the d-d band centered at 580 nm indicates a reorganization of the coordination sphere upon photolysis. The band for the intact Cu complex 2 disappears and is replaced by bands corresponding to the expected photoproducts 3 and 4, as confirmed by their mass spectra and by comparison to a picolinamide standard for 3. […] Reduction to Cu1+ is also possible as a result of photolysis, although it would likely reoxidize to Cu2+ under these experimental conditions.
All chemicals were purchased commercially and used without further purification. […] Elemental analysis was performed by Columbia Analytical Services, Inc. IR spectra were measured on a Nicolet 380 FT-IR. High-resolution, fast-atom bombardment (HR-FABMS) mass spectra were recorded on JEOL JMS-SX-102 instrument. […] A Varian Polaris C18 (150×1.0 mm) column was used and peaks were detected by UV absorption at 254 nm. […] UV-vis spectra were recorded on a Cary 50 UV-vis spectrophotometer. […]

[6] = constant of the model, taken from literature; cited from earlier work
[7] = Solubility of H2cage in solvents; assay type: physicochemical
Source text: A ligand H2cage is obtained in a one-pot, two-step synthesis starting from 3-amino-3-(2-nitrophenyl)propionic acid. […] In the presence of Cu2+, however, protons are released from H2cage at pH 3.3 and 4.8, consistent with deprotonation of both amides.

[8] = Potentiometric titration of the apo-ligand H2cage; assay type: physicochemical; details: pH range 2 to 12

SMILES: O=C(O)CN(CC(=O)O)CC(=O)O [NTA, nitrilotriacetic acid, reference compound]
- effect on OH• production by copper ([1]; pH 7.4): promotes OH• production
- Kd ([2]; pH 7.4, read-out: KD for Cu2+): 0.023 nM

SMILES: NC(=O)c1ccccn1 [picolinamide]
- effect on OH• production by copper ([1]; pH 7.4): improve the catalytic properties of the metal
- log value for the 1:1 species ([2]; Cu2+ : ligand 1:1): 2.87
- log value for the 1:2 species ([2]; Cu2+ : ligand 1:2): 5.40

- Kd ([3]; pH 7.4, converted from log β, read-out: conditional dissociation constant, KD): 0.016 nM
- Log β (overall stability constant) [3]: 10.8
- Log β (overall stability constant) ([3]; listed as CuL): 10.80 ± 0.01
- Log β [4]: 10.79 ± 0.06
- changes in UV-vis spectrum on exposure to UV light [5]: apparent within seconds
- time of photolysis until cleavage of the ligand is complete ([5]; LC-MS): ≤ 4 min
SMILES: O=C1CC(c2ccccc2[N+](=O)[O-])[N](C(=O)c2ccccn2)[Cu]([OH])[N]1Cc1ccccn1 (stereo not shown) [[Cu(OH2)(cage)]]
- OH• production after uncaging by UV photolysis ([1]; photolyzed for 4 min, increase in A532): increases OH• production

SMILES: O=C(O)CN(CC(=O)O)CC(=O)O [NTAH4]
- Log β [6]: 14.76

SMILES: O=C(O)CN(CC(=O)O)CC(=O)O [NTAH3]
- Log β [6]: 13.76

- solubility in methanol and ethanol [7]: very soluble
- solubility in water [7]: moderately soluble
- dissociable (ionizable) protons [8]: no dissociable protons
- dissociable (ionizable) protons ([8]; listed as apo-ligand): no ionizable protons
- pH at which protons are released from H2cage, higher value ([3]; in the presence of Cu2+): 4.8
- pH at which protons are released from H2cage, lower value ([3]; in the presence of Cu2+): 3.3
- protection of deoxyribose degradation ([1]; compared to background reaction of Cu2+ alone, pH 7.4): 50%
SMILES: O=C(CC(NC(=O)c1ccccn1)c1ccccc1[N+](=O)[O-])NCc1ccccn1 (stereo not shown) [H2cage, Pyridine-2-carboxylic acid {1-(2-nitro-phenyl)-2-[(pyridine-2-ylmethyl)-carbamoyl]-ethyl}-amide]

SMILES: O=C([O-])CN(CC(=O)[O-])CC(=O)O.[Cu+2] [Cu(NTA)]
- Log β [6]: 12.7
